According to US20250197408A1, “CRYSTALLINE FORMS AND SALTS OF A PI3K INHIBITOR AND METHODS OF MAKING AND METHODS OF USE THEREOF” (Totus Medicines Inc., priority 2022, published 2025):

Key:
NCI-H23 (Lung) = assay: Cell proliferation assay (CellTiter-Glo, 3 days treatment), NCI-H23; type: cell-based; conditions: Homo sapiens, 72 h, read-out: Absolute IC50
Source text: (§1) The cell lines tested included as follows: UM-UC-3 (bladder), KYSE-410 (HN/Esophagus), SW1463 (rectum), Calu-1 (Lung), NCI-H358 (Lung), SW837 (Rectum), SW756 (Cervix), NCI-H2122 (Lung), NCI-H1373 (Lung), NCI-H1792 (Lung), NCI-H23 (Lung), MIA PaCa-2 (Pancreas), and HC44.
(§2) Cells were recovered and maintained in appropriate culture media. The cells were harvested respectively during the logarithmic growth period. The cells were then resuspended and counted using a Vi cell counter (The cell viability be measured by trypan blue exclusion assay.). The cells were then diluted and 90 μL cell suspensions were used in 96-well plates according to plate map with final cell density. Two duplicate plates were set up. One is for day 0 reading (TO) and the other was cultured in incubator for reading at the end point. The incubated plates were incubated overnight in humidified incubator at 37° C. with 5% CO2.
(§3) At day 0, 10 μL culture medium to each well for TO reading. 10 μL of culture medium was added to each well for TO reading. Then, 50 μl CellTiter-Glo® Reagent was added to each well. […] Luminescence was then recorded using an EnVision Multi Label Reader. […]
(§4) For the endpoint CTG reading, 50 μL of CellTiter-Glo® Reagent were added to each well. […] Luminescence was then recorded using an EnVision Multi Label Reader. IC50's were determined for each cell line.

UM-UC-3 (bladder) = assay: Cell proliferation assay (CellTiter-Glo, 3 days treatment), UM-UC-3; type: cell-based; conditions: Homo sapiens, UMUC3, 72 h, read-out: Absolute IC50
Source text: as §1, §2, §3, §4

NCI-H358 (Lung) = assay: Cell proliferation assay (CellTiter-Glo, 3 days treatment), NCI-H358; type: cell-based
Source text: as §1, §2
At day 0, 10 μL culture medium to each well for TO reading. Then, 50 μl CellTiter-Glo® Reagent was added to each well. The contents were then mixed for 2 minutes on an orbital shaker to facilitate cell lysis. The plates were then allowed to incubate at room temperature for 10 minutes to stabilize luminescent signal. Luminescence was then recorded using an EnVision Multi Label Reader. The test compound Compound I, and a control cisplatin, where then diluted at various concentrations from a 10 mM stock solution. Compound I was diluted and 10 μL of each 10× compound I from working solutions for a concentration ranging from 10 μM to about 0.005 μM. Cisplatin was diluted to about […] to about 150 nM. The screening plates were then placed back into the incubator for the appropriate treatment time (3 days).
For the endpoint CTG reading, 50 μL of CellTiter-Glo® Reagent were added to each well. The contents were then mixed for 2 minutes on an orbital shaker to facilitate cell lysis. […] Luminescence was then recorded using an EnVision Multi Label Reader. IC50's were determined for each cell line.

SW1463 (rectum) = assay: Cell proliferation assay (CellTiter-Glo, 3 days treatment), SW1463; type: cell-based; conditions: Homo sapiens, 72 h, read-out: Absolute IC50
Source text: as §1, §2, §3, §4

PI3K = molecular target: T1, PI3K (Homo sapiens, UniProt P42336); assay: NanoBRET screening in transfected HEK293 cells (binding assay, with washout); conditions: compound incubated overnight then washed
T1 construct: expressed in transfected cells; host or cells: HEK293 (Gibco 293-H, #11631017), transient transfection with FuGENE HD
Procedure: Human embryonic kidney 293-H (HEK 293, Gibco 293-H, #11631017) cell lines were maintained in Dulbecco's Modified Eagle Medium, high glucose, pyruvate (DMEM, Gibco, #11995065) supplemented with 10% fetal bovine serum (FBS, Gibco, #10082147) and 1× penicillin-streptomycin (100× solution, Gibco, #15140148) at 37° C. and 5% CO2 in a water-saturated incubator. Cell were trypsinized using 0.05% or 0.25% Trypsin-EDTA solution (Trypsin-EDTA, phenol red, Gibco, #25200056 (0.25%) or #25300054). Opti-MEM media supplemented with 10% fetal bovine serum (Opti-MEM I reduced serum media, no phenol red, Gibco, #11058021) was used for culturing cells overnight for NanoBRET readout experiments.
HEK293 cells were cultivated appropriately prior to assay. The medium from cell flask was removed via aspiration, washed 1× with PBS followed by aspiration, trypsinized, and cells were allowed to dissociate from the flask. Trypsin was neutralized using growth medium and cells were pelleted via centrifugation at 200×g for 5 minutes. The medium was aspirated and the cells were resuspended into a single cell suspension using Opti-MEM I supplemented with 10% FBS. The cell density was adjusted to 2×10^5/mL in Opti-MEM I supplemented with 10% FBS in a sterile, conical tube. […]
A 10 μg/mL solution of DNA was prepared in Opti-MEM without serum. […] The plate on plate reader is read every hour for the next 6 hours.

KYSE-410 (HN/Esophagus) = assay: Cell proliferation assay (CellTiter-Glo, 3 days treatment), KYSE-410; type: cell-based; conditions: Homo sapiens, 72 h, read-out: Absolute IC50
Source text: as §1, §2, §3, §4

MIA PaCa-2 (Pancreas) = assay: Cell proliferation assay (CellTiter-Glo, 3 days treatment), MIA PaCa-2; type: cell-based; conditions: Homo sapiens, 72 h, read-out: Absolute IC50
Source text: as §1, §2, §3, §4

NCI-H1792 (Lung) = assay: Cell proliferation assay (CellTiter-Glo, 3 days treatment), NCI-H1792; type: cell-based; conditions: Homo sapiens, 72 h, read-out: Absolute IC50
Source text: as §1, §2, §3, §4

SW756 (Cervix) = assay: Cell proliferation assay (CellTiter-Glo, 3 days treatment), SW756; type: cell-based; conditions: Homo sapiens, 72 h, read-out: Absolute IC50
Source text: as §1, §2, §3, §4

Calu-1 (Lung) = assay: Cell proliferation assay (CellTiter-Glo, 3 days treatment), Calu-1; type: cell-based; conditions: Homo sapiens, 72 h, read-out: Absolute IC50
Source text: as §1, §2, §3, §4

NCI-H1373 (Lung) = assay: Cell proliferation assay (CellTiter-Glo, 3 days treatment), NCI-H1373; type: cell-based; conditions: Homo sapiens, 72 h, read-out: Absolute IC50
Source text: as §1, §2, §3, §4

HC44 = assay: Cell proliferation assay (CellTiter-Glo, 3 days treatment), HC44; type: cell-based; conditions: Homo sapiens, 72 h, HCC44 (Lung), read-out: Absolute IC50
Source text: as §1, §2, §3, §4

SW837 (Rectum) = assay: Cell proliferation assay (CellTiter-Glo, 3 days treatment), SW837; type: cell-based; conditions: Homo sapiens, 72 h, read-out: Absolute IC50
Source text: as §1, §2, §3, §4

NCI-H2122 (Lung) = assay: Cell proliferation assay (CellTiter-Glo, 3 days treatment), NCI-H2122; type: cell-based; conditions: Homo sapiens, 72 h, read-out: Absolute IC50
Source text: as §1, §2, §3, §4

T1 sequence (P42336 whole entry): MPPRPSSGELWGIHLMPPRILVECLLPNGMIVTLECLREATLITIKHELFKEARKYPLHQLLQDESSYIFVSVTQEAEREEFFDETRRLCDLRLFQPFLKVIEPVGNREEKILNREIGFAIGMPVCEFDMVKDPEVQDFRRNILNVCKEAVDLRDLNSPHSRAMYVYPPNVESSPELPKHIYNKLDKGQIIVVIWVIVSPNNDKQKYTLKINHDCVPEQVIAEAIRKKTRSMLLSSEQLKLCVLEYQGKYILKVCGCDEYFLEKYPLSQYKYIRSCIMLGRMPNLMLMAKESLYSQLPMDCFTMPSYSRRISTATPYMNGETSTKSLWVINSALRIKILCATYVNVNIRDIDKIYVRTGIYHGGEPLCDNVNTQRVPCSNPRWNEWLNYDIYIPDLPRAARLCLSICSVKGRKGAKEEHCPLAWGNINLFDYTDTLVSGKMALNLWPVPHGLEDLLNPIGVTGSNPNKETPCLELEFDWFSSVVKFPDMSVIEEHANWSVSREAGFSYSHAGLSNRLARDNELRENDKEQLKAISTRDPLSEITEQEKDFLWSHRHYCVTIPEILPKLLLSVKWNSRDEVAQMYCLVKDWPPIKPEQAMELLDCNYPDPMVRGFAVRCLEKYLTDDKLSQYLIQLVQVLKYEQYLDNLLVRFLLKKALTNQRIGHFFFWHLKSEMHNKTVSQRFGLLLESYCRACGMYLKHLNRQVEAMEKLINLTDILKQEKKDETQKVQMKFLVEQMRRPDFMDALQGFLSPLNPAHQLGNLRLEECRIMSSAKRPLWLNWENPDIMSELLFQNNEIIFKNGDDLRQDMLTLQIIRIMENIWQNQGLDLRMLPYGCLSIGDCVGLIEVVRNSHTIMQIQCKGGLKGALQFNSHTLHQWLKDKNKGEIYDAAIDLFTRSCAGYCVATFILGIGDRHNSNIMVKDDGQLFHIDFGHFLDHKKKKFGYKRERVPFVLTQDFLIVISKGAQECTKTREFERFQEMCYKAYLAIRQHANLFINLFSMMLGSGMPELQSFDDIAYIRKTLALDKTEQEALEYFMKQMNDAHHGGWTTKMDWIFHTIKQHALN
T1 sequence (P27986 whole entry partner): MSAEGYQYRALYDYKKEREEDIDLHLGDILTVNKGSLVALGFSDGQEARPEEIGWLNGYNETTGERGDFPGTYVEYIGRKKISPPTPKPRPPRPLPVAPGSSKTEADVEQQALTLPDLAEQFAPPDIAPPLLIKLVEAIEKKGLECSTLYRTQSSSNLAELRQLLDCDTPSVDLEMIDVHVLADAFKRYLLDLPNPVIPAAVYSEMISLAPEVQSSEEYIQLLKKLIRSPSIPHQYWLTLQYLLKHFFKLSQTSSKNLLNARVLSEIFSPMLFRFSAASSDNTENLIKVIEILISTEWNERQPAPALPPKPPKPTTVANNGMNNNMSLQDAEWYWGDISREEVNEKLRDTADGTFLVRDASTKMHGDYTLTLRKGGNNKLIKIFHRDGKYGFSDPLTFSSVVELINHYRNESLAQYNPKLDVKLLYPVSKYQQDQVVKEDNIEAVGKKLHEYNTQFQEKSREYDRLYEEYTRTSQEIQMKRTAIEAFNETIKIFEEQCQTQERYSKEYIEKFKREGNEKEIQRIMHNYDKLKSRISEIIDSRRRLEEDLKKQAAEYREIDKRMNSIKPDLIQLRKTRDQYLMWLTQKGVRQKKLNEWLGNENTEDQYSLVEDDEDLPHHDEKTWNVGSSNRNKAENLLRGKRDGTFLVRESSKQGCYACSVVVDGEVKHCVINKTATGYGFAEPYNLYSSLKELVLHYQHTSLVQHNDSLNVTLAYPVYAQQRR

## C=CC(=O)NCC(=O)N1CCN(Cc2cc3c(N4CCOCC4)nc(-c4cnc(NC(=O)OC)cc4C(F)(F)F)nn3c2)CC1 [Compound I, methyl (5-(6-((4-(acryloylglycyl)piperazin-1-yl)methyl)-4-morpholinopyrrolo[2,1-f][1,2,4]triazin-2-yl)-4-(trifluoromethyl)pyridin-2-yl) carbamate]
NCI-H23 (Lung)
  IC50: > 10 µM
UM-UC-3 (bladder)
  IC50: > 10 µM
NCI-H358 (Lung); Homo sapiens, 72 h, NCI-H358 (Lung), 3 days treatment, read-out: Absolute IC50
  IC50: 1.69 µM
NCI-H358 (Lung); NCI-H358, 3 days treatment, CellTiter-Glo
  inhibitory effect on cell proliferation: substantial inhibitory effect
SW1463 (rectum)
  IC50: 3.86 µM
PI3K
  inhibition of the PI3K target: greater than 80%
KYSE-410 (HN/Esophagus)
  IC50: 2.02 µM
MIA PaCa-2 (Pancreas)
  IC50: > 10 µM
NCI-H1792 (Lung)
  IC50: > 10 µM
SW756 (Cervix)
  IC50: 7.29 µM
Calu-1 (Lung)
  IC50: > 10 µM
NCI-H1373 (Lung)
  IC50: > 10 µM
HC44
  IC50: 7.92 µM
SW837 (Rectum)
  IC50: > 10 µM
NCI-H2122 (Lung)
  IC50: 3.77 µM
